Assay results published in US12404242B2, “Compositions and methods for making and using small molecules in the treatment of cancer” (Reglagene, Inc., priority 2021, dated 2025).
≈ marks a conversion by molar mass, not a printed value. Where two headings read alike, the source gives them in different places.

What was measured:
[1] = tested on: U87 cells; experiment: Cell viability (AlamarBlue), U87 glioblastoma cells; type: cell-based, human; conditions: 72 hours of treatment
Outline: (§1)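 Following a 72-hour incubation with escalating compound doses, applied one day after seeding, AlamarBlue fluorescence gave viability relative to untreated cells, from which half-maximal effective concentrations were calculated.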

[2] = tested on: LN18 cells; experiment: Cell viability (AlamarBlue), LN18 glioma cells; type: cell-based; conditions: Homo sapiens, LN-18, 72 hours of treatment
Protocol: (§2) In another exemplary method, half maximal effective concentration (EC50) was determined for some compounds and their isomers as disclosed herein in a variety of human cancer cell lines. In brief, cells from two prostate cancer cell lines (LNCaP, 22RV1), one glioblastoma cell line (U87), one breast cancer cell line (MCF7), a glioma cell line (LN18), a normal prostate cell line (RWPE1), and a glioblastoma cell line (T98G) were plated in a multi-well plate. After 24 hours, one of the compounds herein was added to the well at increasing concentrations. After 72 hours of treatment, cell viability was assessed using AlamrBlue® (Invitrogen) and fluorescence was read using the CLARIOstar Plus Multilabel Plate Reader (BMG Labtech). Samples were normalized to no treatment controls. EC50 values were determined using GraphPad Prism.

[3] = tested on: T98G cells; experiment: Cell viability (AlamarBlue), T98G glioblastoma cells; type: cell-based; conditions: Homo sapiens, 72 hours of treatment
Protocol: as §2

[4] = tested on: LNCaP cells; experiment: Cell viability (AlamarBlue), LNCaP prostate cancer cells; type: cell-based, human; conditions: Homo sapiens, LNCaP, 72 h, 72 hours of treatment
Outline: as §1

[5] = tested on: 22RV1 cells; experiment: Cell viability (AlamarBlue), 22RV1 prostate cancer cells; type: cell-based, human; conditions: 72 hours of treatment
Outline: as §1

[6] = tested on: MCF7 cells; experiment: Cell viability (AlamarBlue), MCF7 breast cancer cells; type: cell-based; conditions: Homo sapiens, 72 hours of treatment
Protocol: as §2

[7] = tested on: RWPE1 cells; experiment: Cell viability (AlamarBlue), RWPE1 normal prostate cells; type: cell-based, human; set-up: key to EC50 (μM) in RWPE1 cells: Inactive: less than 50% inhibition at the highest concentration tested at 50 μM; conditions: 72 hours of treatment, normal prostate cell line
Protocol: as §2

[8] = Plasma and brain tissue levels after oral dose, brain tumor xenograft mice; type: in vivo, CrTac:NCr-Foxn1nu athymic nude mouse; conditions: CrTac:NCr-Foxn1nu athymic nude, single oral dose 100 mg/kg
Protocol: In another exemplary method, levels of Compound 19A were determined in plasma and brain tissue following administration. For these studies, a CrTac:NCr-Foxn1^nu athymic nude mouse strain was used as an acceptable mouse model. For these experiments, CrTac:NCr-Foxn1^nu athymic nude mouse received […] of tumors implanted into the brain tissues. Compound 19A was then administered to the mice orally as a homogenous suspension in DMSO: (PEG 400: PVP=95:5)=1:4. A single dose of 100 mg/kg of Compound 19A was administered in this manner. Concentrations of the Compound 19A in plasma and brain tissue (after extraction) were measured using HPLC-MS quantitation.
FIG. 51 and Table 8 illustrate increasing concentrations of Compound 19A in both the left, healthy brain tissue and the right experimental brain tissue containing tumor as well as in plasma over time.

[9] = Kinetic solubility in aqueous PBS buffer (HPLC-MS); type: physicochemical; conditions: kinetic from dmso stock, DMSO stock mixed with aqueous PBS buffer, filtered, read-out: Kinetic Solubility
Outline: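 A concentrated DMSO stock was mixed with aqueous PBS buffer and filtered. The filtrate was quantified against an HPLC-MS calibration curve.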

[10] = tested on: tubulin; experiment: Tubulin polymerization assay; type: biochemical; conditions: 5 uM (FIG. 41A, 41C) or 1 uM (FIG. 41B)
Protocol: FIG. 41A-41C represent exemplary experiments illustrating inhibition of tubulin polymerization. FIG. 41A illustrates effects of compounds 19, 73, 86, 93 and 94 at 5 uM concentration. FIG. 41B illustrates effects of compounds 93, 94, 95 and 96 at 1 uM concentration.
FIG. 41C illustrates effects of compounds 73, 86, 87 and 88 at 5 uM concentration in accordance with certain embodiments of the present disclosure. Colchicine and vincristine are positive controls.
FIG. 42A-42B represent exemplary experiments illustrating inhibition of tubulin polymerization. FIG. 42A illustrates effects of compound 19 at 0.3, 1, 3 and 6 uM concentrations.
FIG. 42B illustrates effects of compound 73 at […] concentration in accordance with certain embodiments of the present disclosure. Colchicine and nocodazole are positive controls.
In another exemplary method, the effect of the compounds herein on tubulin polymerization was determined. FIG. 41A illustrates effects of compounds 19, 73, 86, 93 and 94 at 5 uM concentration, FIG. 41B illustrates effects of compounds 93, 94, 95 and 96 at 1 uM concentration, or FIG. 41C illustrates effects of compounds 87 and 88 at 5 uM concentration in accordance with certain embodiments of the present disclosure. Colchicine and vincristine are positive controls.
The dose dependent effect of compounds 19 and 73 on tubulin polymerization was also determined. FIG. 42A illustrates effects of compound 19 at 0.3, 1, 3 and 6 uM concentrations, and FIG. 42B illustrates effects of compound 73 at 0.1, 0.3, 1, 3 and 5 uM concentration in accordance with certain embodiments of the present disclosure. Colchicine and nocodazole are positive controls.

[11] = tested on: LN18 glioblastoma cancer cells; experiment: Combination with Temozolomide, Bliss synergy in LN18 cells; type: cell-based; conditions: Temozolomide 0 to 1000 uM, compound 0.625 to 10 uM
Protocol: Synergy was calculated with the Bliss independence model. Compounds were combined at concentrations of 0 to 1000 uM for Temozolomide and 0.625 to 10 uM for compounds 19 and 59.

[12] = tested on: 22Rv1 prostate cancer cells; experiment: Combination with Rabusertib, Bliss synergy in 22Rv1 cells; type: cell-based; conditions: Rabusertib 0 to 30 uM, compound 0.625 to 5 uM
Protocol: Synergy was calculated with the Bliss independence model. Compounds were combined at concentrations of 0 to 30 uM for Rabusertib and 0.625 to 5 uM for compounds 73 and 76.

[13] = mouse, brain tissue (left, healthy), read-out: Brain Tissue Healthy, Left concentration
[14] = mouse, brain tissue (right, containing tumor), read-out: Brain Tissue Tumor, right concentration
[15] = plasma, tumor-bearing nude mouse, read-out: Plasma concentration

Compound | EC50 ([1]; Homo sapiens, U-87 MG, 72 h) | EC50 [2] | solubility kinetic [9] | effect on tubulin polymerization [10] | also measured
COC12CC(C(=O)NC(=O)Nc3cc(C)c(Oc4ccc(F)cn4)c(F)c3)(C1)C2 [Compound 91, N-((3-fluoro-4-((5-fluoropyridin-2-yl)oxy)-5-methylphenyl)carbamoyl)-3-methoxybicyclo[1.1.1]pentane-1-carboxamide] | 0.63 µM | 0.087 µM |  |  | EC50 [3]: 0.167 µM
COC1CC(C(=O)NC(=O)Nc2ccc(Oc3ccc(Cl)cn3)c(C)c2)C1 (single isomer, unassigned) [Compound 19A, 1-{4-[(5-chloropyridin-2-yl)oxy]-3-methylphenyl}-3-(3-methoxycyclobutanecarbonyl) urea] |  |  |  |  | EC50 [4]: 0.87 µM; EC50 [5]: 0.95 µM; EC50 [1]: 2.2 µM; EC50 [6]: 2.8 µM; EC50 (μM) in RWPE1 cells [7]: Inactive; concentration at 0.5 h [8, 13]: 767 ng/g; concentration at 1 h [8, 13]: 1230 ng/g; concentration at 6 h [8, 13]: 1460 ng/g; concentration at 0.5 h [8, 14]: 828 ng/g; concentration at 1 h [8, 14]: 1460 ng/g; concentration at 6 h [8, 14]: 1520 ng/g; concentration at 0.5 h [8, 15]: 973 ng/mL; concentration at 1 h [8, 15]: 1340 ng/mL; concentration at 6 h [8, 15]: 1510 ng/mL
COC12CC(C(=O)NC(=O)Nc3ccc(C)c(Oc4ncccn4)c3)(C1)C2 [Compound 97, 3-methoxy-N-((4-methyl-3-(pyrimidin-2-yloxy)phenyl)carbamoyl)bicyclo[1.1.1]pentane-1-carboxamide] | 0.02 µM | 0.011 µM | 5.8 µM (≈ 2.14 µg/mL) |  | EC50 [3]: 0.026 µM
COC12CC(C(=O)NC(=O)Nc3ccc(Oc4ccc(Cl)cn4)c(C)c3)(C1)C2 [Compound 84, N-((4-((5-chloropyridin-2-yl)oxy)-3-methylphenyl)carbamoyl)-3-methoxybicyclo[1.1.1]pentane-1-carboxamide] | 0.16 µM | 0.01 µM |  |  | 
COC12CC(C(=O)NC(=O)Nc3cc(C)c(Oc4ncc(Cl)cn4)c(F)c3)(C1)C2 [Compound 90, N-((4-((5-chloropyrimidin-2-yl)oxy)-3-fluoro-5-methylphenyl)carbamoyl)-3-methoxybicyclo[1.1.1]pentane-1-carboxamide] | 0.065 µM | 0.034 µM | 2.17 µM (≈ 0.913 µg/mL) |  | EC50 [3]: 0.0384 µM
COC12CC(C(=O)NC(=O)Nc3ccc(Oc4ccccn4)c(C)c3)(C1)C2 [Compound 86, 3-methoxy-N-((3-methyl-4-(pyridin-2-yloxy)phenyl)carbamoyl)bicyclo[1.1.1]pentane-1-carboxamide] | 0.26 µM |  |  | significantly inhibit tubulin polymerization | 
COC12CC(C(=O)NC(=O)Nc3ccc(Oc4ncccn4)c(C)c3)(C1)C2 [Compound 87, 3-methoxy-N-((3-methyl-4-(pyrimidin-2-yloxy)phenyl)carbamoyl)bicyclo[1.1.1]pentane-1-carboxamide] | 1.2 µM |  | 27.5 µM (≈ 10.1 µg/mL) | significantly inhibit tubulin polymerization | 

Continued, in another order:

EC50 ([1]; Homo sapiens, U-87 MG, 72 h) | EC50 [2] | solubility kinetic [9] | Compound | effect on tubulin polymerization [10] | also measured
0.014 µM |  | 7.2 µM (≈ 2.69 µg/mL) | COC1CC(C(=O)NC(=O)Nc2ccc(C)c(Oc3ccc(F)cn3)c2)C1 (stereo not shown) [Compound 95, N-((3-((5-fluoropyridin-2-yl)oxy)-4-methylphenyl)carbamoyl)-3-methoxycyclobutane-1-carboxamide] | significantly inhibit tubulin polymerization | 
0.002 µM |  |  | COC1CC(C(=O)NC(=O)Nc2ccc(Oc3nc(C)c(C)s3)c(C)c2)C1 (stereo not shown) [Compound 59, N-((4-((4,5-dimethylthiazol-2-yl)oxy)-3-methylphenyl)carbamoyl)-3-methoxycyclobutane-1-carboxamide] |  | EC50 [4]: 0.27 µM; EC50 ([5]; Homo sapiens, 22Rv1, 72 h): 0.08 µM; Bliss Synergy value, combination with Temozolomide ([11]; LN18 cells, Bliss independence model): 20.0; effect of combination with Temozolomide on cancer cell viability [11]: synergistic decrease in cancer cell viability
0.1 µM |  |  | COC1CC(C(=O)NC(=O)Nc2cc(C)c(Oc3ccc(Cl)cn3)c(F)c2)C1 (stereo not shown) [Compound 76, N-((4-((5-chloropyridin-2-yl)oxy)-3-fluoro-5-methylphenyl)carbamoyl)-3-methoxycyclobutane-1-carboxamide] |  | Bliss Synergy value, combination with Rabusertib ([12]; 22Rv1 cells, Bliss independence model): 15.3; effect of combination with Rabusertib on cancer cell viability [12]: synergistic decrease in cancer cell viability
0.045 µM |  | 11.8 µM (≈ 4.19 µg/mL) | COC1CC(C(=O)NC(=O)Nc2ccc(C)c(Oc3ccccn3)c2)C1 (stereo not shown) [Compound 94, 3-methoxy-N-((4-methyl-3-(pyridin-2-yloxy)phenyl)carbamoyl)cyclobutane-1-carboxamide] | significantly inhibit tubulin polymerization | 
1.45 µM |  | 10.9 µM (≈ 4.21 µg/mL) | COC12CC(C(=O)NC(=O)Nc3ccc(Oc4ncc(F)cn4)c(C)c3)(C1)C2 [Compound 88, N-((4-((5-fluoropyrimidin-2-yl)oxy)-3-methylphenyl)carbamoyl)-3-methoxybicyclo[1.1.1]pentane-1-carboxamide] | significantly inhibit tubulin polymerization | 
0.035 µM |  | 14.8 µM (≈ 5.27 µg/mL) | COC1CC(C(=O)NC(=O)Nc2ccc(C)c(Oc3ncccn3)c2)C1 (stereo not shown) [Compound 96, 3-methoxy-N-((4-methyl-3-(pyrimidin-2-yloxy)phenyl)carbamoyl)cyclobutane-1-carboxamide] | significantly inhibit tubulin polymerization | 
